According to patent US10710994B2, “Oxadiazole transient receptor potential channel inhibitors” (Genentech, Inc., priority 2018, dated 2020):
Like-named read-outs stand apart in the source and are kept apart here.

Target: human TRPA1 channel (Homo sapiens (Human), UniProt O75762)
Test: hTRPA1 CHO Ca2+ FLIPR Tetra assay: block of cinnamaldehyde induced calcium influx
Assay type: cell-based
Conditions: CHO cells expressing TRPA1, Hill coefficient fixed to 1.5
Procedure, shortened: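 TRPA1-expressing CHO cells loaded with calcium indicator dye (1 h 37° C, then 15 min room temperature) in HBSS/20 mM HEPES pH 7.4/0.02% BSA. IC50 from fits with fixed Hill coefficient.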

[1] = read-out: hTRPA1 IC50 10 min, 10 minutes incubation with compound before cinnamaldehyde (about EC80)
[2] = read-out: hTRPA1 IC50 90 min, 90 minutes incubation with compound before cinnamaldehyde (about EC80)
[3] = hTRPA1 IC50 90 min, 90 minutes incubation with compound before cinnamaldehyde (about EC80)

Chain of human TRPA1 channel (O75762 whole entry): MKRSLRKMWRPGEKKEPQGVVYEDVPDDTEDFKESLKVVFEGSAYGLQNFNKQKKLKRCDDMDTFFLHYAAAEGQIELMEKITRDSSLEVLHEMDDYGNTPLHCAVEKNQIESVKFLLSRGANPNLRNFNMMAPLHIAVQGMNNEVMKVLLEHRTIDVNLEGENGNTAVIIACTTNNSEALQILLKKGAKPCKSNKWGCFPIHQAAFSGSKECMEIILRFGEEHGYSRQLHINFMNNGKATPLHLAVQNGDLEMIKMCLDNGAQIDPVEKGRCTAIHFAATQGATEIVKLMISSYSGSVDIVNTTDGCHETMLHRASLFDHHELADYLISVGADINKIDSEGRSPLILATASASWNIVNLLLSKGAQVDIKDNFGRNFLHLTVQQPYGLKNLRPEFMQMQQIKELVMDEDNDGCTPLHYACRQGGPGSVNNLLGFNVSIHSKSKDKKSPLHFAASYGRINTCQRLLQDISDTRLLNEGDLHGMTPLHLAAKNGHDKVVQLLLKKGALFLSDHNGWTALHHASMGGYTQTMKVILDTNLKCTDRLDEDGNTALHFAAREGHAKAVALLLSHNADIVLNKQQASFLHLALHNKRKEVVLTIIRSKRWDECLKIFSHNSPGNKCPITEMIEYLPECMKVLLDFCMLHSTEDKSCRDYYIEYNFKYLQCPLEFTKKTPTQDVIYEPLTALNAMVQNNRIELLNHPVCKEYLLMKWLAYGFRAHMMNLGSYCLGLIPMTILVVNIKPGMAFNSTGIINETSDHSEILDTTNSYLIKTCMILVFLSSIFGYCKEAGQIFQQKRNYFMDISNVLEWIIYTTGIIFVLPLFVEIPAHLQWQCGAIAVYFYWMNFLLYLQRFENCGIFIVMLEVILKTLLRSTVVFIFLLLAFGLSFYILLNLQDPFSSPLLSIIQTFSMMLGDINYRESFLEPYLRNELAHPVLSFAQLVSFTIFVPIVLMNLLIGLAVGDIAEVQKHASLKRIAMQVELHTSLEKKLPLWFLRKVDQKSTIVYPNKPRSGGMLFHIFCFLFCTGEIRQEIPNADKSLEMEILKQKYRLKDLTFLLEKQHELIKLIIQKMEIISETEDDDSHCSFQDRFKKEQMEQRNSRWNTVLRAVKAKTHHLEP

IC50 [1] [nM] | IC50 [2] [nM] | IC50 [3] [nM] | IC50 (hTRPA1 IC50 10 min, 10 minutes incubation with compound before cinnamaldehyde (about EC80)) [nM] | Structure (SMILES)
332 | 240 | – | – | Cc1c(=O)ncn2cnn(Cc3nc([C@@H]4CO[C@@H](c5ccc(Cl)cc5)C4)no3)c(=O)c12 [Example 47, 2-((3-((3R,5R)-5-(4-chlorophenyl)tetra-hydrofuran-3-yl)-1,2,4-oxadiazol-5-yl)methyl)-9-methyl-2H-pyrimido[1,6-d][1,2,4] triazine-1,8-dione]
16.4 | 3.6 | – | – | Cn1cnc2ncn(Cc3nc([C@@H]4CO[C@@H](c5ccc(F)c(Cl)c5)C4)no3)c(=O)c21 [Example 35, 1-((3-((3R,5R)-5-(3-chloro-4-fluorophenyl)tetrahydro-furan-3-yl)-1,2,4-oxadiazol-5-yl)methyl)-7-methyl-1,7-dihydro-6H-purin-6-one]
10.3 | 7.5 | – | – | Nc1nc2cccnc2n1Cc1nc([C@@H]2CO[C@@H](c3ccc(Cl)cc3)C2)no1 [Example 155, 3-[[3-[(3R,5R)-5-(4-chlorophenyl)tetrahydro-furan-3-yl]-1,2,4-oxadiazol-5-yl]methyl]imidazo[4,5-b]pyridin-2-amine]
97.3 | 11 | – | – | Cn1cnc2nc(N)n(Cc3nc([C@@H]4CO[C@@H](c5ccc(C(F)(F)F)cc5)C4)no3)c(=O)c21 [Example 136, 2-amino-7-methyl-1-((3-((3R,5R)-5-(4-(trifluoromethyl)phenyl)tetrahydrofuran-3-yl)-1,2,4-oxadiazol-5-yl)methyl)-1,7-dihydro-6H-purin-6-one]
14.5 | 14 | – | – | Cn1c(=O)ccc2ncn(Cc3nc([C@@H]4CO[C@@H](c5ccc(Cl)cc5)C4)no3)c(=O)c21 [Example 46, 3-((3-((3R,5R)-5-(4-chlorophenyl)tetra-hydrofuran-3-yl)-1,2,4-oxadiazol-5-yl)methyl)-5-methyl-3,5-dihydropyrido[3,2-d] pyrimidine-4,6-dione]
58.7 | 9.7 | – | – | Cn1c(N)nc2ncn(Cc3nc([C@@H]4CO[C@@H](c5ccc(Cl)cc5)C4)no3)c(=O)c21 [Example 26, 8-amino-1-((3-((3R,5R)-5-(4-chlorophenyl)tetrahydro-furan-3-yl)-1,2,4-oxadiazol-5-yl)methyl)-7-methyl-1,7-dihydro-6H-purin-6-one]
47 | 32 | – | – | Cn1ncc2ncn(Cc3nc([C@@H]4CO[C@@H](c5ccc(Cl)cc5)C4)no3)c(=O)c21 [Example 151, 6-((3-((3R,5R)-5-(4-chlorophenyl)tetrahydro-furan-3-yl)-1,2,4-oxadiazol-5-yl)methyl)-1-methyl-1,6-dihydro-7H-pyrazolo[4,3-d] pyrimidin-7-one]
13.4 | 1.4 | – | – | Cc1ccnc2nc(N)n(Cc3nc([C@@H]4CO[C@@H](c5ccc(F)cc5)C4)no3)c(=O)c12 [Example 133, 2-amino-3-((3-((3R,5R)-5-(4-fluorophenyl)tetra-hydrofuran-3-yl)-1,2,4-oxadiazol-5-yl)methyl)-5-methylpyrido[2,3-d] pyrimidin-4(3H)-one]
11.3 | 5.9 | – | – | Cc1n[nH]c2ncn(Cc3nc([C@@H]4CO[C@@H](c5ccc(Cl)cc5)C4)no3)c(=O)c12 [Example 117, 5-((3-((3R,5R)-5-(4-chlorophenyl)tetrahydro-furan-3-yl)-1,2,4-oxadiazol-5-yl)methyl)-3-methyl-1,5-dihydro-4H-pyrazolo[3,4-d] pyrimidin-4-one]
4.48 | 2.1 | – | – | Nc1nn2c(C(F)(F)F)ncc2c(=O)n1Cc1nc([C@@H]2CO[C@@H](c3ccc(Cl)cc3)C2)no1 [Example 149, 2-amino-3-((3-((3R,5R)-5-(4-chlorophenyl)tetrahydro-furan-3-yl)-1,2,4-oxadiazol-5-yl)methyl)-7-(trifluoromethyl)imidazo [5,1-f][1,2,4]triazin-4(3H)-one]
150 | 110 | – | – | Cn1cnc2ncn(Cc3nc([C@@H]4CO[C@@H](c5ccc(OC(F)F)cc5)C4)no3)c(=O)c21 [Example 19, 1-((3-((3R,5R)-5-(4-(difluoromethoxy)phenyl)tetrahydrofuran-3-yl)-1,2,4-oxadiazol-5-yl)methyl)-7-methyl-1,7-dihydro-6H-purin-6-one]
76.5 | 39 | – | – | Cn1cnc2c(C(N)=O)nn(Cc3nc([C@@H]4CO[C@@H](c5ccc(Cl)cc5)C4)no3)c(=O)c21 [Example 116, 6-((3-((3R,5R)-5-(4-chlorophenyl)tetrahydro-furan-3-yl)-1,2,4-oxadiazol-5-yl)methyl)-1-methyl-7-oxo-6,7-dihydro-1H-imidazo [4,5-d]pyridazine-4-carboxamide]
– | – | 33 | – | Cc1nc(Br)n2ncn(Cc3nc([C@@H]4CO[C@@H](c5ccc(F)cc5)C4)no3)c(=O)c12 (racemic) [Example 90, 7-bromo-5-methyl-3-[[3-[rac-(3R,5R)-5-(4-fluorophenyl)tetrahydro-furan-3-yl]-1,2,4-oxadiazol-5-yl]methyl] imidazo[5,1-f][1,2,4] triazin-4-one]
82.3 | 33 | – | – | Cn1cnc2ncn(Cc3nc([C@@H]4CO[C@@H](c5ccccc5)C4)no3)c(=O)c21 [Example 13, 7-methyl-1-((3-((3R,5R)-5-phenyltetrahydrofuran-3-yl)-1,2,4-oxadiazol-5-yl)methyl)-1,7-dihydro-6H-purin-6-one]
– | – | 15 | – | O=c1c2c(Cl)ccnc2ncn1Cc1nc([C@@H]2CO[C@@H](c3ccc(F)cc3)C2)no1 (racemic) [Example 95, 5-chloro-3-[[3-[rac-(3R,5R)-5-(4-fluorophenyl)tetrahydrofuran-3-yl]-1,2,4-oxadiazol-5-yl]methyl] pyrido[2,3-d]pyrimidin-4-one]
18.7 | 2.9 | – | – | Nc1nc2ncccc2c(=O)n1Cc1nc([C@@H]2CO[C@@H](c3ccc(F)cc3)C2)no1 [Example 89, 2-amino-3-((3-((3R,5R)-5-(4-fluorophenyl)tetrahydrofuran-3-yl)-1,2,4-oxadiazol-5-yl)methyl) pyrido[2,3-d]pyrimidin-4(3H)-one]
111 | 49 | – | – | Cn1nncc1C(=O)NCc1nc([C@@H]2CO[C@@H](c3ccc(Cl)cc3)C2)no1 [Example 121, N-((3-((3R,5R)-5-(4-chlorophenyl)tetrahydro-furan-3-yl)-1,2,4-oxadiazol-5-yl)methyl)-1-methyl-1H-1,2,3-triazole-5-carboxamide]
– | 25 | – | – | Cc1ncn2ncn(Cc3nc([C@@H]4CO[C@@H](c5ccc(F)cc5)C4)no3)c(=O)c12 [Example 75, 3-((3-((3R,5R)-5-(4-fluorophenyl)tetrahydro-furan-3-yl)-1,2,4-oxadiazol-5-yl)methyl)-5-methylimidazo[5,1-f][1,2,4]triazin-4(3H)-one]
– | – | 13 | 47.4 | Cn1cnc2ncn(Cc3nc([C@@H]4CO[C@@H](c5cc(F)c(Cl)c(F)c5)C4)no3)c(=O)c21 [Example 83, 1-((3-((3R,5R)-5-(4-chloro-3,5-difluorophenyl)tetrahydrofuran-3-yl)-1,2,4-oxadiazol-5-yl)methyl)-7-methyl-1,7-dihydro-6H-purin-6-one]
29.5 | 14 | – | – | Cn1cnc2ncn(Cc3nc([C@@H]4CO[C@@H](c5cccc(Cl)c5)C4)no3)c(=O)c21 [Example 17, 1-((3-((3R,5R)-5-(3-chlorophenyl)tetrahydro-furan-3-yl)-1,2,4-oxadiazol-5-yl)methyl)-7-methyl-1,7-dihydro-6H-purin-6-one]
